These results are taken from patent US5439928A, “Aromatase inhibiting 4(5)-imidazoles” (Orion-yhtyma Oy, priority 1993, dated 1995).

The structures appear in SMILES notation.

One assay concerns the target desmolase (CSCC). Briefly: Cholesterol side chain cleavage (CSCC, desmolase) inhibition, mitochondrial fraction from human placenta or bovine adrenals. Format: biochemical. The following applies: substrate 5 μM, 30 min, 37° C., read-out: IC-50 CSCC (desmolase).
`Fc1ccc(C(CCCCc2ccccc2)c2c[nH]cn2)cc1` (centres unmarked) [Compound 1c, 4-[1-(4-fluorophenyl)-5-phenylpentyl]-1H-imidazole]: the IC50 was 19 µM.

As for `Cc1ccccc1CCCCC(c1ccc(F)cc1)c1c[nH]cn1` (centres unmarked) [Compound 2c, 4-[1-(4-fluorophenyl)-5-(2-methylphenyl)pentyl]-1H-imidazole], the IC50 was 16 µM.

Turning to `Cc1ccccc1C(CCCc1c[nH]cn1)c1ccccc1` (centres unmarked) [Compound 5a, 4-[4-(2-methylphenyl)-4-phenylbutyl]-1H-imidazole], the IC50 came out at 29 µM.

`Cc1cccc(CCCCC(c2ccc(F)cc2)c2c[nH]cn2)c1` (centres unmarked) [Compound 3c, 4-[1-(4-fluorophenyl)-5-(3-methylphenyl)pentyl]-1H-imidazole]: the IC50 was 57 µM.

In the case of `Fc1ccc(C(CCCc2ccccc2)c2c[nH]cn2)cc1` (centres unmarked) [Compound 10c, 4-[1-(4-fluorophenyl)-4-phenylbutyl]-1H-imidazole], the IC50 stood at 31 µM.

As for `Fc1ccccc1C(CCCc1c[nH]cn1)c1ccccc1` (centres unmarked) [Compound 20a, 4-[4-(2-fluorophenyl)-4-phenylbutyl]-1H-imidazole], the IC50 was 38 µM.

On to `Cc1cccc(C(CCCc2c[nH]cn2)c2cc(C)cc(C)c2)c1` (centres unmarked) [Compound 16a, 4-[4-(3,5-dimethylphenyl)-4-(3-methylphenyl)butyl]-1H-imidazole], for which the IC50 came to 95 µM.

Take `Cc1ccc(C(CCCc2c[nH]cn2)c2ccccc2)cc1` (centres unmarked) [Compound 1a, 4-[4-(4-methylphenyl)-4-phenylbutyl]-1H-imidazole]: the IC50 turned out to be 96 µM.

With `Cc1cc(C)cc(CCCCC(c2ccc(F)cc2)c2c[nH]cn2)c1` (centres unmarked) [Compound 5c, 4-[5-(3,5-dimethylphenyl)-1-(4-fluorophenyl)-pentyl]-1H-imidazole], the IC50 came to 80 µM.

For `Cc1ccc(C(CCCc2cncn2Cc2ccccc2)c2ccccc2)cc1` (centres unmarked) [Compound 2a, 1-benzyl-5-[4-(4-methylphenyl)-4-phenylbutyl]-1H-imidazole], the IC50 was 50 µM.

In the case of `c1ccc(C(CCCc2c[nH]cn2)c2ccccc2)cc1` [Compound 9a, 4-(4,4-diphenylbutyl)-1H-imidazole], the IC50 was determined as 320 µM.

Consider `Fc1ccc(CCC(Cc2c[nH]cn2)c2ccc(F)cc2)cc1` (centres unmarked) [Compound 18c, 4-[2,4-bis(4-fluorophenyl)butyl]-1H-imidazole], for which the IC50 was 20 µM.

For `Cc1ccc(CCCCC(c2ccc(F)cc2)c2c[nH]cn2)cc1` (centres unmarked) [Compound 4c, 4-[1-(4-fluorophenyl)-5-(4-methylphenyl)pentyl]-1H-imidazole], the IC50 was 170 µM.

In the case of `Cc1ccc(C(CCCc2c[nH]cn2)c2ccccc2)cc1C` (centres unmarked) [Compound 15a, 4-[4-(3,4-dimethylphenyl)-4-phenylbutyl]-1H-imidazole], the IC50 was 39 µM.

For `c1ccc(C(CCCCc2c[nH]cn2)c2ccccc2)cc1` [Compound 18a, 4-(5,5-diphenylpentyl)-1H-imidazole], the IC50 was determined as 68 µM.

As to `Cc1cccc(C(CCCc2cncn2Cc2ccccc2)c2ccccc2)c1` (centres unmarked) [Compound 3a, 1-benzyl-5-[4-(3-methylphenyl)-4-phenylbutyl]-1H-imidazole], the IC50 amounted to 38 µM.

In the case of `Fc1ccc(CCCC(c2ccc(F)cc2)c2c[nH]cn2)cc1` (centres unmarked) [Compound 15c, 4-[1,4-bis(4-fluorophenyl)butyl]-1H-imidazole], the IC50 came to 29 µM.

Turning to `N#Cc1ccc(C(CCc2ccc(F)cc2)Cc2c[nH]cn2)cc1` (centres unmarked) [Compound 19c, 4-[2-(4-cyanophenyl)-4-(4-fluorophenyl)butyl]-1H-imidazole], the IC50 worked out at 6.6 µM.

As for `C(=Cc1c[nH]cn1)CC(c1ccccc1)c1ccccc1` [Compound 22a, 4-(4,4-diphenyl-1-butenyl)-1H-imidazole], the IC50 was found to be 165 µM.

Consider `Cc1ccc(C(CCCc2c[nH]cn2)c2ccc(C)cc2)cc1` [Compound 17a, 4-[4,4-bis(4-methylphenyl)butyl]-1H-imidazole], for which the IC50 worked out at 110 µM.

In the case of `COc1ccc(CCCCC(c2ccc(F)cc2)c2c[nH]cn2)cc1` (centres unmarked) [Compound 12c, 4-[1-(4-fluorophenyl)-5-(4-methoxyphenyl)pentyl]-1H-imidazole], the IC50 is 22.5 µM.

Turning to `O=[N+]([O-])c1ccc(C(CCCc2c[nH]cn2)c2ccc([N+](=O)[O-])cc2)cc1` [Compound 24a, 4-[4,4-bis(4-nitrophenyl)butyl]-1H-imidazole], the IC50 came to 37 µM.

As to `Cc1cccc(C(CCCc2c[nH]cn2)c2ccccc2)c1` (centres unmarked) [Compound 4a, 4-(4-(3-methylphenyl)-4-phenylbutyl]-1H-imidazole], the IC50 was 7.5 µM.

`Fc1ccc(C(CCc2ccccc2)Cc2c[nH]cn2)cc1` (centres unmarked) [Compound 17c, 4-[2-(4-fluorophenyl)-4-phenylbutyl]-1H-imidazole]: the IC50 was determined as 28 µM.

Turning to `c1ccc(C(CCCCCc2c[nH]cn2)c2ccccc2)cc1` [Compound 19a, 4-(6,6-diphenylhexyl)-1H-imidazole], the IC50 was 61 µM.

As to `Cc1cccc(C)c1CCCCC(c1ccc(F)cc1)c1c[nH]cn1` (centres unmarked) [Compound 13c, 4-[1-(4-fluorophenyl)-5-(2,6-dimethylphenyl)-pentyl]-1H-imidazole], the IC50 stood at 31 µM.

Consider `Cc1cc(C)cc(C(CCCc2c[nH]cn2)c2ccccc2)c1` (centres unmarked) [Compound 14a, 4-[4-(3,5-dimethylphenyl)-4-phenylbutyl]-1H-imidazole], for which the IC50 was found to be 65 µM.

Take `Cc1ccccc1C(CCCc1cncn1Cc1ccccc1)c1ccccc1` (centres unmarked) [Compound 6a, 1-benzyl-5-[4-(2-methylphenyl)-4-phenylbutyl]-1H-imidazole]: the IC50 was 32 µM.

`CCc1ccc(C(CCCc2c[nH]cn2)c2ccccc2)cc1` (centres unmarked) [Compound 26a, 4-[4-(4-ethylphenyl)-4-phenylbutyl]-1H-imidazole]: the IC50 was found to be 65 µM.

As to `c1ccc(CCC(c2ccccc2)c2c[nH]cn2)cc1` (centres unmarked) [Compound 7c, 4-(1,3-diphenylpropyl)-1H-imidazole], the IC50 was found to be 7.5 µM.

Take `Fc1ccc(C(CCc2ccccc2)c2c[nH]cn2)cc1` (centres unmarked) [Compound 9c, 4-[1-(4-fluorophenyl)-3-phenylpropyl]-1H-imidazole]: the IC50 was 22 µM.

In the case of `c1ccc(CCC(Cc2c[nH]cn2)c2ccccc2)cc1` (centres unmarked) [Compound 16c, 4-(2,4-diphenylbutyl)-1H-imidazole], the IC50 stood at 12 µM.

For the compound `COc1cccc(CCCCC(c2ccc(F)cc2)c2c[nH]cn2)c1` (centres unmarked) [Compound 11c, 4-[1-(4-fluorophenyl)-5-(3-methoxyphenyl)pentyl]-1H-imidazole], the IC50 stood at 12 µM.

On to `COc1ccc(C(CCCc2c[nH]cn2)c2ccc(OC)cc2)cc1` [Compound 12a, 4-[4,4-bis(4-methoxyphenyl)butyl]-1H-imidazole], for which the IC50 was 46 µM.

With `Fc1ccc(C(CCCc2c[nH]cn2)c2ccc(F)cc2)cc1` [Compound 23a, 4-[4,4-bis(4-fluorophenyl)butyl]-1H-imidazole], the IC50 is 175 µM.

Turning to `Fc1ccc(C(CCCc2c[nH]cn2)c2ccccc2)cc1` (centres unmarked) [Compound 21a, 4-[4-(4-fluorophenyl)-4-phenylbutyl]-1H-imidazole], the IC50 worked out at 80 µM.

Consider `Cc1cccc(C(CCCc2c[nH]cn2)c2cccc(C)c2)c1` [Compound 13a, 4-[4,4-bis(3-methylphenyl)butyl]-1H-imidazole], for which the IC50 was 48 µM.

As to `COc1ccc(C(CCCc2c[nH]cn2)c2ccccc2)cc1` (centres unmarked) [Compound 11a, 4-[4-(4-methoxyphenyl)-4-phenylbutyl]-1H-imidazole], the IC50 was 190 µM.

As for `c1ccc(CC(CCCc2c[nH]cn2)c2ccccc2)cc1` (centres unmarked) [Compound 8a, 4-(4,5-diphenylpentyl)-1H-imidazole], the IC50 came out at 27 µM.

Turning to `Fc1ccc(CCC(c2ccc(F)cc2)c2c[nH]cn2)cc1` (centres unmarked) [Compound 14c, 4-[1,3-bis(4-fluorophenyl)propyl]-1H-imidazole], the IC50 amounted to 22 µM.

For `Nc1ccc(C(CCCc2c[nH]cn2)c2ccc(N)cc2)cc1` [Compound 25a, 4-[4,4-bis(4-aminophenyl)butyl]-1H-imidazole], the IC50 came out at 210 µM.

The next assay concerns DMBA-induced rat mammary adenocarcinomas. Description: Anti-tumour effect in vivo against DMBA-induced rat mammary adenocarcinomas. The following applies: 3 mg/kg, daily for five weeks, female rats; control 3. How it is done:
The anti-tumour effect was investigated in vivo against DMBA-induced rat mammary adenocarcinomas by the following method. Mammary adenocarcinoma was induced with DMBA in 50±2 days old female rats. Treatment with the compound under test was started after palpable tumours had appeared. Tumour size and amount of tumours were evaluated once a week. Tumour sizes in the control group, treated with solvent, were compared with the test groups. Daily administration schedule was employed for five weeks and animals were sacrificed. The change in tumour sizes was evaluated. Results were evaluated as changes in the sizes of tumours and divided into three groups, namely increasing, stable and decreasing sizes of tumours.
On to `c1ccc(C(CCCc2c[nH]cn2)c2ccccc2)cc1` [Compound 9a, 4-(4,4-diphenylbutyl)-1H-imidazole], for which the “Number of tumours decreasing” value turned out to be 2.

The assay is the same for the next values; noted with them: 3 mg/kg, daily for five weeks, female rats; control 21.
In the case of `c1ccc(C(CCCc2c[nH]cn2)c2ccccc2)cc1` [Compound 9a, 4-(4,4-diphenylbutyl)-1H-imidazole], the “Number of tumours stable” value is 14.

Staying with this assay, now noted: 3 mg/kg, daily for five weeks, female rats; control 42.
As for `c1ccc(C(CCCc2c[nH]cn2)c2ccccc2)cc1` [Compound 9a, 4-(4,4-diphenylbutyl)-1H-imidazole], the “Number of tumours increasing” value stood at 37.

Staying with this assay, now noted: 30 mg/kg, daily for five weeks, female rats; control 3.
Take `c1ccc(C(CCCc2c[nH]cn2)c2ccccc2)cc1` [Compound 9a, 4-(4,4-diphenylbutyl)-1H-imidazole]: the “Number of tumours decreasing” value is recorded as 21.

Staying with this assay, now noted: 30 mg/kg, daily for five weeks, female rats; control 21.
In the case of `c1ccc(C(CCCc2c[nH]cn2)c2ccccc2)cc1` [Compound 9a, 4-(4,4-diphenylbutyl)-1H-imidazole], the “Number of tumours stable” value was found to be 3.

Staying with this assay, now noted: 30 mg/kg, daily for five weeks, female rats; control 42.
Regarding `c1ccc(C(CCCc2c[nH]cn2)c2ccccc2)cc1` [Compound 9a, 4-(4,4-diphenylbutyl)-1H-imidazole], the “Number of tumours increasing” value came out at 15.
